One compound from ChEMBL document CHEMBL5236603, “Discovery of mobocertinib, a potent, oral inhibitor of EGFR exon 20 insertion mutations in non-small cell lung cancer” (Bioorg Med Chem Lett, 2023) can be followed below.

Data set [1] can be described thus: Inhibition of mouse EGFR V769_D770insASV mutant stably expressed in mouse BaF3 cells assessed as cell viability incubated for 3 days by Cell Titer-Glo assay. To be noted: BaF3, 72 h. Type of data set: cell-based.
Data set [2] is described as follows: AUClast in CD-1 rat at 10 mg/kg, po by LC/MS/MS analysis. In kind it is ADME, organism-based. Also noted: dose 10 mg/kg, route po. To be noted: in vivo.
Data set [3] concerns BaF3. Briefly: In vivo antitumor activity against mouse BaF3 cells expressing EGFR exon 20 insertion (ex20ins) ASV implanted in SCID mouse assessed as tumor growth inhibition at 100 mg/kg, po administered for 7 consecutive days. In kind it is functional. To be noted: BaF3, 168 h, time 7 day, read-out: TGI.
Data set [4] is described as follows: Toxicity in SCID mouse assessed as signs of clinical toxicity at 100 mg/kg, po administered for 7 consecutive days. In kind it is organism-based. To be noted: in vivo.
Data set [5] in a line: Inhibition of mouse EGFR common activating deletion mutant stably expressed in mouse BaF3 cells assessed as cell viability incubated for 3 days by Cell Titer-Glo assay. Type of data set: cell-based. To be noted: BaF3, 72 h. In general terms: In ATP-based viability assays light output follows the ATP content of the culture.
Data set [6] addresses Epidermal growth factor receptor (Homo sapiens, UniProt P04626+P00533+Q15303+P21860, L858R). Kind of data set: Inhibition of mouse EGFR L858R mutant stably expressed in mouse BaF3 cells assessed as cell viability incubated for 3 days by Cell Titer-Glo assay. Type of data set: cell-based.
Data set [7] in a line: Inhibition of mouse EGFR del-T790M mutant stably expressed in mouse BaF3 cells assessed as cell viability incubated for 3 days by Cell Titer-Glo assay. In kind it is cell-based. The following applies: BaF3, 72 h.
A short description of data set [8]: Inhibition of mouse EGFR S768_D770dup D770_N771insSVD (SVD) mutant stably expressed in mouse BaF3 cells assessed as cell viability incubated for 3 days by Cell Titer-Glo assay. Type of data set: cell-based. To be noted: BaF3, 72 h.
For data set [9], the target named is Tyrosine-protein kinase Blk (Homo sapiens) (UniProt P51451). Kind of data set: Inhibition of human BLK at 1 uM by hotspot assay relative to control.
Sequence of Tyrosine-protein kinase Blk (Homo sapiens) (P51451 2-505 limits assumed): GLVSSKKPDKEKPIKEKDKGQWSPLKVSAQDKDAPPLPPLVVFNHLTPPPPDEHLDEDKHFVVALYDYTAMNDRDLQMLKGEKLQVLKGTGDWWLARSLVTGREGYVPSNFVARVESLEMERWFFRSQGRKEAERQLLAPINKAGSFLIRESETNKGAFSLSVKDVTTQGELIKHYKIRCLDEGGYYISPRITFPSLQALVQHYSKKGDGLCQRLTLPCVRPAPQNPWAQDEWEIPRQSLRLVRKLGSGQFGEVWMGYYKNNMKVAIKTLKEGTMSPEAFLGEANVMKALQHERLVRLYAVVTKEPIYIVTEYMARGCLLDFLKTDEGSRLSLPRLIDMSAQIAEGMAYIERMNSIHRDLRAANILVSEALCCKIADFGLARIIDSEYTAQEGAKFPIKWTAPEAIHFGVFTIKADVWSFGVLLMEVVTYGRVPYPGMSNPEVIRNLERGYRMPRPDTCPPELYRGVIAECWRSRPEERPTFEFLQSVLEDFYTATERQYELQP
Data set [10] concerns the target T1, Tyrosine-protein kinase JAK3 (Homo sapiens) (UniProt P52333).
T1 sequence (whole entry): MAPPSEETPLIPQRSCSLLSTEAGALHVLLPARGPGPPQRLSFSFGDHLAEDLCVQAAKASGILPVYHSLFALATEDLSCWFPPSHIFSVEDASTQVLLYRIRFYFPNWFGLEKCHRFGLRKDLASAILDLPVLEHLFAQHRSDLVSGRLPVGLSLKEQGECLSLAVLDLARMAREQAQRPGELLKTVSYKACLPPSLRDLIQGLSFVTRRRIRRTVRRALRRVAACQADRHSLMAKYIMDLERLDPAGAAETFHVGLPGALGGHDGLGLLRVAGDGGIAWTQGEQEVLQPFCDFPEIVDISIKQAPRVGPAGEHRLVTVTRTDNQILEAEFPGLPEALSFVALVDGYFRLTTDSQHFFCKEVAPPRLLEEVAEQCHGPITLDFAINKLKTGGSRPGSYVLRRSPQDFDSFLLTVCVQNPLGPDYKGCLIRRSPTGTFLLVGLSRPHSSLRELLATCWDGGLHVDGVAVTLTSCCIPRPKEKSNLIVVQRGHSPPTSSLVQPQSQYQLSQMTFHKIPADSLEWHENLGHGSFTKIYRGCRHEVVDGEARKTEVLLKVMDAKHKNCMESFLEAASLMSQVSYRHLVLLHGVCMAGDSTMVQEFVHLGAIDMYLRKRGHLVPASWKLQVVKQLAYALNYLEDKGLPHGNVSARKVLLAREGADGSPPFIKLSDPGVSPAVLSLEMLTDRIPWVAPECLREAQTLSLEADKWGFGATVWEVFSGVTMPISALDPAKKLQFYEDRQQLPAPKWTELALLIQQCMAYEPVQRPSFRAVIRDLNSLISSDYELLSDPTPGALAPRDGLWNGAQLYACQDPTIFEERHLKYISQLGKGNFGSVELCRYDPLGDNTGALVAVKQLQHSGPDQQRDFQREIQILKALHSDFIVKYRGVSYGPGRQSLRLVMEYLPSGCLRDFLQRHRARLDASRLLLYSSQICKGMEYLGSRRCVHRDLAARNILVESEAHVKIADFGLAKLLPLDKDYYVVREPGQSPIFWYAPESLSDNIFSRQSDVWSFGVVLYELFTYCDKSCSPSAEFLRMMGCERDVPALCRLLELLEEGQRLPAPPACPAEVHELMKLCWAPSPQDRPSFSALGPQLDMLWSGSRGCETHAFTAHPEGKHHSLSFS
Briefly: Inhibition of human JAK3 at 1 uM by hotspot assay relative to control.

The target in data set [11] is T2, Tyrosine-protein kinase TXK (Homo sapiens) (UniProt P42681).
T2 sequence (whole entry): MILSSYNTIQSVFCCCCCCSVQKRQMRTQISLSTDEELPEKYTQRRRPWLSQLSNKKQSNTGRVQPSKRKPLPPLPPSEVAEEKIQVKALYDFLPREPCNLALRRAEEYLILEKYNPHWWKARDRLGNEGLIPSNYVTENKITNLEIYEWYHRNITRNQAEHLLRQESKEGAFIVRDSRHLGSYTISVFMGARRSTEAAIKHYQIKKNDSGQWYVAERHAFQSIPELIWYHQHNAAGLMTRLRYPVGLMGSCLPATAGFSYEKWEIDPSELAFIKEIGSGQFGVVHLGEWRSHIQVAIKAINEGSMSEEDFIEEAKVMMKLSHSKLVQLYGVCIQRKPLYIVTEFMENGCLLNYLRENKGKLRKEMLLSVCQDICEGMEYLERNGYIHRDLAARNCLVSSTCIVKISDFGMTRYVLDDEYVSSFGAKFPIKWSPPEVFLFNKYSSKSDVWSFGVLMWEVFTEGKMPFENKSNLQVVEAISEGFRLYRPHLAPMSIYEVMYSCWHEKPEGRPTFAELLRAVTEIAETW
Kind of data set: Inhibition of human TXK at 1 uM by hotspot assay relative to control.

Broadly, the IC50 is the midpoint of a concentration-inhibition curve. Broadly, the AUC(0-t) is exposure summed from dosing to a finite time, without extrapolation to infinity. A lower AUC(0-t) goes with low exposure. Broadly, the inhibition is the percentage by which the read-out fell short of the control. Regarding `C=CC(=O)Nc1cc(Nc2ncc(C(=O)OC(C)C)c(-c3cn(C)c4ccccc34)n2)c(OC)cc1N(C)CCN(C)C` [MOBOCERTINIB], the half-maximal inhibitory concentration (IC50) in [1] amounted to 11 nM; in data set [5], 2.7 nM; in [6], 3.3 nM; in data set [7], 6.3 nM; in data set [8] it was 22.5 nM. The exposure AUC(0-t) in [2] was 1780 ng·h/mL. In addition, the inhibition in vivo at 100 mg/kg in data set [3] was found to be 89%. Besides, the Activity result in data set [4] is “Non-Toxic”. For the same compound, the inhibition in data set [9], in [10] and in data set [11] was greater than 81% in each case.
